Measurements from the supplement of paper PMC10307832.

What was measured:
Experiment in all cases: relative viability (nuclei count vs DMSO), 5 days (fraction); higher = more cells survive
Bemcentinib + Vorinostat = compound: Nc1nc(Nc2ccc3c(c2)CC[C@@H](N2CCCC2)CC3)nn1-c1cc2c(nn1)-c1ccccc1CCC2 [Bemcentinib] + O=C(CCCCCCC(=O)Nc1ccccc1)NO [Vorinostat] (partner 1 µM)
Summary of the method: (§1)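 Five library-drug doses in √10 steps were combined with a fixed anchor-drug dose, or a single drug was given alone, by pin tool to lung cancer cell lines in 1536-well plates the day after seeding. Nuclei were stained and counted after 5 days. Relative viability is the nuclei count in treated wells over that in vehicle wells, taken as the median of duplicate plates.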

[1] = compound: CC1=CC=C(C=C1)C(=O)CN2C3=C(CCCC3)SC2=N [Pifithrin_alpha] + Cc1nc(Nc2ncc(C(=O)Nc3c(C)cccc3Cl)s2)cc(N2CCN(CCO)CC2)n1 [Dasatinib] (partner 0.075 µM)
Summary of the method: as §1

Axitinib + OSI-027 = compound: CNC(=O)c1ccccc1Sc1ccc2c(/C=C/c3ccccn3)n[nH]c2c1 [Axitinib] + COc1cccc2cc(-c3nc([C@H]4CC[C@H](C(=O)O)CC4)n4ncnc(N)c34)[nH]c12 [OSI-027] (partner 0.5 µM)
Summary of the method: as §1

[2] = compound: CC1=CC=C(C=C1)C(=O)CN2C3=C(CCCC3)SC2=N [Pifithrin_alpha] + CCNC(=O)c1noc(-c2cc(C(C)C)c(O)cc2O)c1-c1ccc(CN2CCOCC2)cc1 [Luminespib] (partner 0.01 µM)
Summary of the method: as §1

NCI-H1395
relative viability (Bemcentinib + Vorinostat; first compound 0.1265 µM): 0.681
relative viability (Bemcentinib + Vorinostat; first compound 0.4 µM): 0.674
relative viability (Bemcentinib + Vorinostat; first compound 1.265 µM): 0.716
relative viability (Bemcentinib + Vorinostat; first compound 4 µM): 0.634
relative viability ([1]; first compound 1 µM): 0.407
relative viability ([1]; first compound 3.162 µM): 0.419
relative viability ([1]; first compound 10 µM): 0.371
relative viability ([1]; first compound 31.62 µM): 0.399
relative viability ([1]; first compound 100 µM): 0.386
relative viability (Axitinib + OSI-027; first compound 0.005 µM): 0.595
relative viability (Axitinib + OSI-027; first compound 0.01581 µM): 0.595
relative viability (Axitinib + OSI-027; first compound 0.05 µM): 0.736
relative viability (Axitinib + OSI-027; first compound 0.1581 µM): 0.581
relative viability (Axitinib + OSI-027; first compound 0.5 µM): 0.633
relative viability ([2]; first compound 1 µM): 0.704
relative viability ([2]; first compound 3.162 µM): 0.518
relative viability ([2]; first compound 10 µM): 0.631
relative viability ([2]; first compound 31.62 µM): 0.663
relative viability ([2]; first compound 100 µM): 0.657

NCI-H1437
relative viability (Bemcentinib + Vorinostat; first compound 0.04 µM): 0.857
relative viability (Bemcentinib + Vorinostat; first compound 0.1265 µM): 0.914
relative viability (Bemcentinib + Vorinostat; first compound 0.4 µM): 0.97
relative viability (Bemcentinib + Vorinostat; first compound 1.265 µM): 0.955
relative viability (Bemcentinib + Vorinostat; first compound 4 µM): 0.889
relative viability ([1]; first compound 1 µM): 0.545
relative viability ([1]; first compound 3.162 µM): 0.474
relative viability ([1]; first compound 10 µM): 0.401
relative viability ([1]; first compound 31.62 µM): 0.349
relative viability ([1]; first compound 100 µM): 0.45
relative viability (Axitinib + OSI-027; first compound 0.005 µM): 0.905
relative viability (Axitinib + OSI-027; first compound 0.01581 µM): 0.832
relative viability (Axitinib + OSI-027; first compound 0.05 µM): 0.872
relative viability (Axitinib + OSI-027; first compound 0.1581 µM): 0.846
relative viability (Axitinib + OSI-027; first compound 0.5 µM): 0.847
relative viability ([2]; first compound 1 µM): 1.27
relative viability ([2]; first compound 3.162 µM): 1.2
relative viability ([2]; first compound 10 µM): 1.08
relative viability ([2]; first compound 31.62 µM): 0.728
relative viability ([2]; first compound 100 µM): 0.947

NCI-H1650
relative viability (Bemcentinib + Vorinostat; first compound 0.04 µM): 0.515
relative viability (Bemcentinib + Vorinostat; first compound 0.1265 µM): 0.713
relative viability (Bemcentinib + Vorinostat; first compound 0.4 µM): 0.753
relative viability (Bemcentinib + Vorinostat; first compound 1.265 µM): 0.576
relative viability (Bemcentinib + Vorinostat; first compound 4 µM): 0.553
relative viability ([1]; first compound 3.162 µM): 0.242
relative viability ([1]; first compound 10 µM): 0.246
relative viability ([1]; first compound 31.62 µM): 0.25
relative viability ([1]; first compound 100 µM): 0.212
relative viability (Axitinib + OSI-027; first compound 0.005 µM): 0.706
relative viability (Axitinib + OSI-027; first compound 0.01581 µM): 0.513
relative viability (Axitinib + OSI-027; first compound 0.05 µM): 0.721
relative viability (Axitinib + OSI-027; first compound 0.1581 µM): 0.64
relative viability (Axitinib + OSI-027; first compound 0.5 µM): 1.01
relative viability ([2]; first compound 3.162 µM): 0.223
relative viability ([2]; first compound 10 µM): 0.176
relative viability ([2]; first compound 31.62 µM): 0.209
relative viability ([2]; first compound 100 µM): 0.169

NCI-H1651
relative viability (Bemcentinib + Vorinostat; first compound 0.04 µM): 0.532
relative viability (Bemcentinib + Vorinostat; first compound 0.1265 µM): 0.557
relative viability (Bemcentinib + Vorinostat; first compound 0.4 µM): 0.569
relative viability (Bemcentinib + Vorinostat; first compound 1.265 µM): 0.476
relative viability (Bemcentinib + Vorinostat; first compound 4 µM): 0.613
relative viability ([1]; first compound 1 µM): 0.37
relative viability ([1]; first compound 3.162 µM): 0.506
relative viability ([1]; first compound 10 µM): 0.425
relative viability ([1]; first compound 31.62 µM): 0.322
relative viability ([1]; first compound 100 µM): 0.326
relative viability (Axitinib + OSI-027; first compound 0.005 µM): 0.73
relative viability (Axitinib + OSI-027; first compound 0.01581 µM): 0.683
relative viability (Axitinib + OSI-027; first compound 0.05 µM): 0.725
relative viability (Axitinib + OSI-027; first compound 0.1581 µM): 0.601
relative viability (Axitinib + OSI-027; first compound 0.5 µM): 0.674
relative viability ([2]; first compound 1 µM): 0.988
relative viability ([2]; first compound 3.162 µM): 1.27
relative viability ([2]; first compound 10 µM): 0.944
relative viability ([2]; first compound 31.62 µM): 0.438
relative viability ([2]; first compound 100 µM): 0.625

NCI-H1666
relative viability (Bemcentinib + Vorinostat; first compound 0.04 µM): 1.02
relative viability (Bemcentinib + Vorinostat; first compound 0.1265 µM): 1.24
relative viability (Bemcentinib + Vorinostat; first compound 0.4 µM): 1.07
relative viability (Bemcentinib + Vorinostat; first compound 1.265 µM): 1
relative viability (Bemcentinib + Vorinostat; first compound 4 µM): 0.998
relative viability ([1]; first compound 1 µM): 0.808
relative viability ([1]; first compound 3.162 µM): 0.81
relative viability ([1]; first compound 10 µM): 0.682
relative viability ([1]; first compound 31.62 µM): 0.588
relative viability ([1]; first compound 100 µM): 0.542
relative viability (Axitinib + OSI-027; first compound 0.005 µM): 1.01
relative viability (Axitinib + OSI-027; first compound 0.01581 µM): 0.86
relative viability (Axitinib + OSI-027; first compound 0.05 µM): 0.88
relative viability (Axitinib + OSI-027; first compound 0.1581 µM): 0.825
relative viability (Axitinib + OSI-027; first compound 0.5 µM): 0.855
relative viability ([2]; first compound 1 µM): 1.05
relative viability ([2]; first compound 3.162 µM): 1.01
relative viability ([2]; first compound 10 µM): 0.877
relative viability ([2]; first compound 31.62 µM): 0.821
relative viability ([2]; first compound 100 µM): 0.645

NCI-H1734
relative viability (Bemcentinib + Vorinostat; first compound 0.04 µM): 0.788
relative viability (Bemcentinib + Vorinostat; first compound 0.1265 µM): 0.773
relative viability (Bemcentinib + Vorinostat; first compound 0.4 µM): 0.853
relative viability (Bemcentinib + Vorinostat; first compound 1.265 µM): 0.833
relative viability (Bemcentinib + Vorinostat; first compound 4 µM): 0.828
relative viability ([1]; first compound 1 µM): 0.421
relative viability ([1]; first compound 3.162 µM): 0.494
relative viability ([1]; first compound 10 µM): 0.474
relative viability ([1]; first compound 31.62 µM): 0.461
relative viability ([1]; first compound 100 µM): 0.424
relative viability (Axitinib + OSI-027; first compound 0.005 µM): 0.586
relative viability (Axitinib + OSI-027; first compound 0.01581 µM): 0.57
relative viability (Axitinib + OSI-027; first compound 0.05 µM): 0.656
relative viability (Axitinib + OSI-027; first compound 0.1581 µM): 0.623
relative viability (Axitinib + OSI-027; first compound 0.5 µM): 0.644
relative viability ([2]; first compound 1 µM): 0.184
relative viability ([2]; first compound 3.162 µM): 0.186
relative viability ([2]; first compound 10 µM): 0.191
relative viability ([2]; first compound 31.62 µM): 0.159
relative viability ([2]; first compound 100 µM): 0.18

NCI-H1755
relative viability (Bemcentinib + Vorinostat; first compound 0.04 µM): 0.783
relative viability (Bemcentinib + Vorinostat; first compound 0.1265 µM): 0.808
relative viability (Bemcentinib + Vorinostat; first compound 0.4 µM): 0.754
relative viability (Bemcentinib + Vorinostat; first compound 1.265 µM): 0.823
relative viability (Bemcentinib + Vorinostat; first compound 4 µM): 0.923
relative viability ([1]; first compound 1 µM): 0.39
relative viability ([1]; first compound 3.162 µM): 0.622
relative viability ([1]; first compound 10 µM): 0.391
relative viability ([1]; first compound 31.62 µM): 0.362
relative viability ([1]; first compound 100 µM): 0.401
relative viability (Axitinib + OSI-027; first compound 0.005 µM): 0.772
relative viability (Axitinib + OSI-027; first compound 0.01581 µM): 0.783
relative viability (Axitinib + OSI-027; first compound 0.05 µM): 0.724
relative viability (Axitinib + OSI-027; first compound 0.1581 µM): 0.674
relative viability (Axitinib + OSI-027; first compound 0.5 µM): 0.894
relative viability ([2]; first compound 1 µM): 0.5
relative viability ([2]; first compound 3.162 µM): 0.601
relative viability ([2]; first compound 10 µM): 0.562
relative viability ([2]; first compound 31.62 µM): 0.315
relative viability ([2]; first compound 100 µM): 0.272
